Results taken from US6294568A, “5-arylpyrrole derivatives” (priority 1997, dated 2001).

Tests used:
Human COX-1 = target: T1, Human COX-1 (Homo sapiens, UniProt P23219); experiment: Human COX-1 Inhibitory Activity Test (TXB2 in blood); type: cell-based; details: IC50 from Hill Plot
T1 construct: endogenous in cells; host or cells: whole blood of a healthy human donor (own knowledge: TXB2 of clotting blood comes from platelet COX-1)
Protocol: (§1) COX-1 and COX-2 activities were measured according to the method of Patrignani et al. (J. Pharm. Exp. Ther. Vol. 271, 1705 (1994)).
(1) COX-1 activity was measured in the following procedure. […] The serum obtained by 10 minutes of centrifugation at 2000 rpm at 4° C. was stored at -40° C. until the measurement of the amount of thromboxane B2 (TXB2). The test samples, which had been dissolved in ethanol and diluted to the specified concentrations, were previously dispensed into the glass test tubes, and the solvent was evaporated to dryness by Centrifugal Vaporizer (CVE-200D, manufactured by Tokyo Rika Mfg. Co., Ltd.) so that the test samples were added to the plasma.
(3) The measurement for the TXB2 content was conducted in the following procedure. In a part of a 96 well plate coated with anti-rabbit IgG antibody, 2 wells were allotted respectively to blank well, Non-specific Binding (NSB) well, Maximum Binding (B0) well, standard wells at 7 concentrations of TXB2 (1000 pg/ml) in doubling dilution ranging from 1000-15.6 pg/ml. The rest of the wells were used for the measurement of the samples. EIA buffer was added to the NSB wells (100 μl ) and B0 wells (50 μl), respectively. 50 μl of each of the standard dilution was added in an order from thinner to thicker concentrations. Each of the samples was added to the rest of the wells in an amount of 50 μl. Then, 50 μl of TXB2 tracer was added to each of the wells except for the blank wells. Further, 50 μl of TXB2 antibody was added to each of the wells except for the NSB wells and blank wells, then the well plate was covered with a plastic film and the reaction continued for 18 hours at room temperature. When the reaction was terminated, the wells were washed 5 times with a wash buffer. 200 μl of Elman's reagent was added to each of the wells and then the well plate was covered with a plastic film and developed for 60 minutes in a dark place. The absorbance at 405 nm was measured by an Immuno Reader (NJ-2000, manufactured by Nippon Intermed Co., Ltd.). From the measurement result, %B/B0 was calculated and, applying it to the approximation formula of Hill Plot, the concentration of the samples was determined to be 2,000 times concentration. […]

Human COX-2 = target: T2, Human COX-2 (Homo sapiens, UniProt P35354); experiment: Human COX-2 Inhibitory Activity Test (LPS-induced PGE2 in blood); type: cell-based; details: for IC50: human blood, LPS, PGE2, IC50 from Hill Plot; for COX-1/COX-2: ratio of IC50 COX-1 to COX-2
T2 construct: endogenous in cells; host or cells: heparinised whole blood of a healthy human donor pretreated with aspirin, stimulated with LPS (own knowledge: COX-2 is induced in monocytes)
T2 sequence (P35354 18-604): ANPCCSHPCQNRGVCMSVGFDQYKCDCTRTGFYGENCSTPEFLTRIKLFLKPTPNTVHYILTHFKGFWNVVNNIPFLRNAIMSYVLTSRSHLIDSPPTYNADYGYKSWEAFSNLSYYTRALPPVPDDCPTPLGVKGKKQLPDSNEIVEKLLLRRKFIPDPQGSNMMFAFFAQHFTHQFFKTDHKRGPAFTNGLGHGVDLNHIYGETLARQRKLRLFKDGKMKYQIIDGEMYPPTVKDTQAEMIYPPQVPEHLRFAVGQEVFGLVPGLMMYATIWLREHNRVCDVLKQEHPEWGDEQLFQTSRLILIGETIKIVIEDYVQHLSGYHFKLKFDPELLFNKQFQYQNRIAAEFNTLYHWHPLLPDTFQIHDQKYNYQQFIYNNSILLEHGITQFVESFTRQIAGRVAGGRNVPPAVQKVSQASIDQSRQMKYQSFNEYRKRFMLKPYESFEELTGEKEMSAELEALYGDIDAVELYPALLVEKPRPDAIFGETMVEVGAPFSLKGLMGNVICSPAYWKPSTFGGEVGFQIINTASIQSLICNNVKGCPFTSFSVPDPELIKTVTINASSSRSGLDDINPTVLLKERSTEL
Protocol: as §1
(2) COX-2 activity was measured in the following procedure. To blood collected from a healthy normal who had taken 330 mg of aspirin 48 hours before the blood collection in order to inhibit the COX-1 activity, 10 unit/ml of sodium heparin was added, and then pipetted into glass test tubes by 1 ml. 10 μg/ml of Lipopolysaccharide (LPS) was added thereto and the plasma obtained by the specified operation was stored at -40° C. until the measurement for the amount of prostaglandin E2 (PGE2). Test samples containing the test samples were treated in the same manner of operation as described above.
(4) The measurement for the PGE2 content was conducted in the following procedure. In a part of 96 well plate coated with goat anti-mouse antibody, 2 wells were alloted respectively to a blank well, Non-specific Binding (NSB) well, Maximum Binding (B0) well, standard wells at seven concentrations of PGE2 (1000 pg/ml) in doubling dilution ranging from 1000-15.6 pg/ml. The rest of the wells were used for the sample measurement. EIA buffer was added to the NSB wells (100 μl) and to the B0 wells (50 μl), respectively. 50 μl of each of the standard dilution was added in an order from thinner to thicker concentrations. Each of the samples was added to the rest of the wells in an amount of 50 μl. Then, 50 μl of PGE2 tracer was added to each of the wells except for blank wells. Further, 50 μl PGE2 monoclonal antibody was added to each of the wells except for the NSB wells and blank wells, then the well plate was covered with a plastic film and the reaction continued at room temperature for 18 hours. When the reaction was terminated, the wells were washed 5 times with a wash buffer. 200 μl of Elman's reagent was added to each of the wells, and then the well plate was covered with a plastic film and developed for 60 minutes in a dark place. The absorbance at 405 nm was measured by an Immuno Reader (NJ-2000, manufactured by Nippon Intermed Co., Ltd.). From the measurement result, %B/B0 was calculated and, applying it to the approximation formula of Hill Plot, the concentration of the samples was determined to be 40 times concentration. The dilution was conducted with an EIA buffer throughout the Test Example 3.

carrageenan footedema = experiment: Carrageenan Footedema Suppression Test; type: in vivo, SD rats; details: oral; paw volume three hours after carrageenan administration
Protocol: The carrageenin footedema suppression test was conducted according to the method of Winter et al. (J. Pharm. Exp. Ther., Vol.141, 369 (1963)). The test samples suspended in Tween 80 were administered orally to SD rats (6 rats per 1 group) in an amount of 1 ml per 100 g of the body weight, while only the solvent was administered in the same manner as above as a control. One hour after the administration, 1% carrageenan physiological saline was injected subcutaneously to the rats in the plantar area of the right hind paw. Three hours after the carrageenan administration, the paw volumes were measured and the edematization rate (%) was calculated with Formula 1 and then edematization suppression rate (%) was calculated with Formula 2.
Edematization rate (%)=((paw volume after carrageenan injection- paw volume before carrageenan injection)/(paw volume before carrageenan injection)×100 Formula: 1
Edematization suppression rate (%)=((edematization rate of control-
edematization rate of test samples)/edematization rate of […]

T1 sequence (P23219 24-599): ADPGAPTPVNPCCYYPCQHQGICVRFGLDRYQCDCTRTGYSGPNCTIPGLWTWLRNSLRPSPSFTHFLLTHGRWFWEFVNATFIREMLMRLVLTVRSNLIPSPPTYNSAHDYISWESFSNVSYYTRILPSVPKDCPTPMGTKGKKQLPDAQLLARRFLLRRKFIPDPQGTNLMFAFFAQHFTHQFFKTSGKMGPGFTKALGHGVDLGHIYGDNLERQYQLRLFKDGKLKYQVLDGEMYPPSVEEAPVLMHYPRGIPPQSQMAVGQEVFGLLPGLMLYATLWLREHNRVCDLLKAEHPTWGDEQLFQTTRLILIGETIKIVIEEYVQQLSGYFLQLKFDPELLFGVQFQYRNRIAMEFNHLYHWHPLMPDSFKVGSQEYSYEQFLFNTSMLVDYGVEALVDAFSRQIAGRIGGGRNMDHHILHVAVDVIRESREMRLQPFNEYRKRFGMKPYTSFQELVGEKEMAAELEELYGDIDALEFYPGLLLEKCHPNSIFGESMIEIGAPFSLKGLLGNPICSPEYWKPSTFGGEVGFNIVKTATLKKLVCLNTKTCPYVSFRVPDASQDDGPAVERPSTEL

Row | SMILES | IC50 (Human COX-1) | IC50 (Human COX-2) | COX-1/COX-2 (Human COX-2) | Edematization Suppression rate (carrageenan footedema)
1 | COc1ccc(-c2cc(C)[nH]c2-c2ccc(OC)cc2)cc1 [Control compound (a), 4,5-bis(4-methoxyphenyl)-2-methyl-1H-pyrrole, reference compound] | 1 nM | 4820 nM | < 0.1 | 23.4%
2 | Cc1cc(-c2cccc(Cl)c2)c(-c2ccc(S(C)(=O)=O)cc2)[nH]1 [Preparation Example 4, 4-(3-chlorophenyl)-2-methyl-5-(4-methylsulfonylphenyl)-1H-pyrrole] | > 100000 nM | 164 nM | > 610 | 30.1%
3 | Cc1cc(-c2ccc(F)cc2F)c(-c2ccc(S(C)(=O)=O)cc2)[nH]1 [Preparation Example 7, 4-(2,4-difluorophenyl)-2-methyl-5-(4-methylsulfonylphenyl)-1H-pyrrole] | 30600 nM | 144 nM | 212 | 34.5%
4 | Cc1cc(-c2ccc(F)c(F)c2)c(-c2ccc(S(C)(=O)=O)cc2)[nH]1 [Preparation Example 8, 4-(3,4-difluorophenyl)-2-methyl-5-(4-methylsulfonylphenyl)-1H-pyrrole] | 26700 nM | 219 nM | > 457 | 26.7%
5 | CCc1cc(-c2ccc(F)cc2)c(-c2ccc(S(C)(=O)=O)cc2)[nH]1 [Preparation Example 11, 2-ethyl-4-(4-fluorophenyl)-5-(4-methylsulfonylphenyl)-1H-pyrrole] | 9900 nM | 84 nM | 118 | 
6 | Cc1cc(-c2ccc(N(C)C)cc2)c(-c2ccc(S(C)(=O)=O)cc2)[nH]1 [Preparation Example 19, 4-(4-dimethylaminophenyl)-2-methyl-5-(4-methylsulfonylphenyl)-1H-pyrrole] |  | 747 nM | > 134 | 43.2%
7 | Cc1cc(-c2cccc(N(C)C)c2)c(-c2ccc(S(C)(=O)=O)cc2)[nH]1 [Preparation Example 23, 4-(3-dimethylaminophenyl)-2-methyl-5-(4-methylsulfonylphenyl)-1H-pyrrole] |  | 346 nM | > 289 | 
8 | COc1ccc(-c2cc(C)[nH]c2-c2ccc(S(C)(=O)=O)cc2)cc1Cl [Preparation Example 28, 4-(3-chloro-4-methoxyphenyl)-2-methyl-5-(4-methylsulfonylphenyl)-1H-pyrrole] |  | 310 nM | > 323 | 
9 | Cc1cc(-c2ccc(N(C)C)c(C)c2)c(-c2ccc(S(C)(=O)=O)cc2)[nH]1 [Preparation Example 32, 4-(4-N,N-dimethylamino-3-methylphenyl)-2-methyl-5-(4-methylsulfonylphenyl)-1H-pyrrole] |  | 442 nM | > 226 | 
10 | Cc1cc(C#Cc2ccccc2)c(-c2ccc(S(C)(=O)=O)cc2)[nH]1 [Preparation Example 48, 4-phenylethynyl-2-methyl-5-(4-methylsulfonylphenyl)-1H-pyrrole] |  | 300 nM | > 339 | 40.1%
11 | CS(=O)(=O)c1ccc(-c2[nH]c(CCC(=O)O)cc2-c2ccc(F)cc2)cc1 [Preparation Example 50, 4-(4-fluorophenyl)-5-(4-methylsulfonylphenyl)-1H-pyrrole-2-propionic acid] |  | 454 nM | > 220 | 28.9%
12 | Cc1cc(-c2ccc(F)c(F)c2F)c(-c2ccc(S(C)(=O)=O)cc2)[nH]1 [Preparation Example 52, 4-(2,3,4-trifluorophenyl)-2-methyl-5-(4-methylsulfonylphenyl)-1H-pyrrole] | 50400 nM | 110 nM | 458 | 
13 | Cc1cc(F)cc(-c2cc(C)[nH]c2-c2ccc(S(C)(=O)=O)cc2)c1 [Preparation Example 53, 4-(3-fluoro-5-methylphenyl)-2-methyl-5-(4-methylsulfonylphenyl)-1H-pyrrole] |  | 162 nM | 617 | 
